Test results reported in US11420970B1 (NOVARTIS AG, priority 2019, dated 2022).
Read-outs that look alike come from different tables or passages of the source.

Target: NSD2 [1-1365] (Homo sapiens (Human), UniProt O96028)
Assay: LC-MS/MS-based NSD2 enzymatic assay (SAH production)
Type: biochemical
Settings: read-out: NSD2 IC50
Protocol: LC-MS/MS-Based NSD2 Enzymatic Assay
This assay employed LC-MS/MS technology to monitor the SAH production from the NSD2 enzymatic reaction. The enzymatic reaction was performed in white proxiplate plus 384-well microplate (Perkin Elmer). The reaction mixture (10 μL) were composed of 8 nM NSD2 [1-1365], […] SAM (USB, 10601) and 400 nM nucleosome (purified from mouse liver) in reaction buffer (20 mM Tris-HCl, pH at 8.0, 0.01% Tween 20, 10 mM MgCl2, 50 mM NaCl, 1 mM DTT, 1 mM TCEP (pH7.5)). After 90 min incubation at room temperature, 3 μL quenching solution containing 2.5% TFA with 320 nM d4-SAH was added to stop the reaction.
For the inhibition assay, compound solutions were transferred into the wells by Mosquito™ (TTP LabTech). The inhibition assays were carried out by preincubating various concentrations of the inhibitor with 5 uL reaction mixture containing 16 nM NSD2 [1-1365] and 2 uM SAM (USB, 10601) in reaction buffer. After 20 min preincubation, 5 uL solution containing 800 nM nucleosome (purified from mouse liver) in reaction buffer was added to initiate the reaction. The reaction was stopped by 3 μL quenching solution containing 2.5% TFA with 320 nM d4-SAH after 90 min.
The SAH production from the enzymatic assays were monitored by LC-MS/MS on an API 4000 triple quadrupole mass spec with Turbolon Spray (Applied Biosystem) coupled with Prominenece UFLC(Shimazu). Liquid chromatography was performed on a Chromolith FastGradient HPLC column (RP-18e, 25-2 mm, from Merck) at a flow rate of 0.8 ml/min. The column was connected directly to the turbo ion electrospray operating in the positive-ion mode. Mobile phase A is 0.1% FA and 2% methanol in water and mobile phase B is 0.1% FA in ACN. Injection volume was 3 μl and the autosampler was kept at 4 degree. SAH and d4-SAH were simultaneously monitored. Data were acquired and processed by Analyst software.
To quantify the formed SAH, d4-SAH was added as internal standard (IS). A series of SAH (Sigma, A9384) solution at varying concentration (1-500 nM in reaction buffer) was mixed with quenching solution mentioned above. Then LC-MS/MS was carried out on API 4000 LC/MS/MS system to detect both SAH and d4-SAH. The plot of SAH peak area/IS peak area vs SAH concentration was used to generate the normalization factor of SAH. The SAH production from real enzymatic reaction was derived from the standard curve of SAH. The down-limit of our system for the detection of SAH is around 1-2 nM, and the linear range can reach up to 500 nM.

[1] = NSD2 biochemical activity, class symbols

Chain of NSD2 [1-1365] (O96028 whole entry): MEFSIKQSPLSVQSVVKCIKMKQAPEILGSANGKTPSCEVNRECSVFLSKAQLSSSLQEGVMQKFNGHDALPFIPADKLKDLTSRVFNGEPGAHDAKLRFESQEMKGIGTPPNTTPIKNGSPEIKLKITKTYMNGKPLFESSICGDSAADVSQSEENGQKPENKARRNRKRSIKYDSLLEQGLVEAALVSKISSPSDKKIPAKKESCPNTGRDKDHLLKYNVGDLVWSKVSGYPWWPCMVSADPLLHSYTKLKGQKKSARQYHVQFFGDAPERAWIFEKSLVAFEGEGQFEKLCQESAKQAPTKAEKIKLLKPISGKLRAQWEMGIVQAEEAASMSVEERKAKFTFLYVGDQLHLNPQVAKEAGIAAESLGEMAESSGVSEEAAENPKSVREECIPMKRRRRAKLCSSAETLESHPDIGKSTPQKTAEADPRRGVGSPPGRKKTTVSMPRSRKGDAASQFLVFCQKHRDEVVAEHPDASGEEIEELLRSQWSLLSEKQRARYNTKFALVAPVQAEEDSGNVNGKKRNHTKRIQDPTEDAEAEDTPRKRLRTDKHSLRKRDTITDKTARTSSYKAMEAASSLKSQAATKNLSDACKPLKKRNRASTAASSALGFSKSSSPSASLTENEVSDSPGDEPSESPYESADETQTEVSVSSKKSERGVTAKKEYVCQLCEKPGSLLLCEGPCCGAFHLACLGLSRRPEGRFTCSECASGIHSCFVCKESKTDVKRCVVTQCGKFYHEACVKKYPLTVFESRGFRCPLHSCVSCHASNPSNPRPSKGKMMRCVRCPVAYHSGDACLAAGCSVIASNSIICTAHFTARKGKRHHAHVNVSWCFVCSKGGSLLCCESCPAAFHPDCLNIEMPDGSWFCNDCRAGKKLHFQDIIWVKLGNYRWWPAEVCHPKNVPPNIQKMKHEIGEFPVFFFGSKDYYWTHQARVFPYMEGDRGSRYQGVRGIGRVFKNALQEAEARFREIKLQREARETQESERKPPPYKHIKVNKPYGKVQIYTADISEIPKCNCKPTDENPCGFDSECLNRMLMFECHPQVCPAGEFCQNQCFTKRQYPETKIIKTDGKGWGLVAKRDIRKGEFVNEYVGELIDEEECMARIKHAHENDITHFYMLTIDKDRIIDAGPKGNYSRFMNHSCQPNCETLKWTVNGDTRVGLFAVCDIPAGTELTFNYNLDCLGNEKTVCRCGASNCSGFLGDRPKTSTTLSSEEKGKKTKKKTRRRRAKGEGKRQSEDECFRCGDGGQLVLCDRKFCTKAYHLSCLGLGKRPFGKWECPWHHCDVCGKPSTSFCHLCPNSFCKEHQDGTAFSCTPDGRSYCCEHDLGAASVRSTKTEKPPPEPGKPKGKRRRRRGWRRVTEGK

Compound | IC50 [1] [µM] | IC50 [µM]
Nc1ncnc2c1ncn2Cc1cc(-c2ccc3c(c2)CCO3)ncc1N1CC[C@@H](F)[C@@H](N)C1 [Example 14, 9-((5-((3S,4R)-3-amino-4-fluoropiperidin-1-yl)-2-(2,3-dihydrobenzofuran-5-yl)pyridin-4-yl)methyl)-9H-purin-6-amine] | 0.01 to 1 | –
Nc1ncnc2c1ncn2Cc1cc(-c2ccc(F)c(F)c2)ncc1N1CCC[C@](N)(C(=O)NC2CCOCC2)C1 [Example 82, (R)-3-amino-1-(4-((6-amino-9H-purin-9-yl)methyl)-6-(3,4-difluorophenyl)pyridin-3-yl)-N-(tetrahydro-2H-pyran-4-yl)piperidine-3-carboxamide] | 0.01 to 1 | –
CN(C)C(=O)CC1(N)CCCN(c2cnc(-c3ccc(F)c(F)c3)cc2Cn2cnc3c(N)ncc(Cl)c32)C1 (stereo not shown) [Example 68, 2-(3-amino-1-(4-((4-amino-7-] | 0.01 to 1 | –
Nc1ncnc2c1ncn2Cc1cc(-c2ccc(F)c(F)c2)ncc1N1CCCC(N)(C(=O)C2CCCC2)C1 (stereo not shown) [Example 100, (3-amino-1-(4-((6-amino-9H-purin-9-yl)methyl)-6-(3,4-difluorophenyl)pyridin-3-yl)piperidin-3-yl)(cyclopentyl)methanone] | 0.001 to 0.01 | –
Cn1ncc2cc(-c3cc(Cn4cnc5c(N)ncnc54)c(N4CCC[C@](N)([C@H](O)C(F)F)C4)cn3)c(F)cc21 [Example 143, (S)-1-((R)-3-amino-1-(4-((6-amino-9H-purin-9-yl)methyl)-6-(6-fluoro-1-methyl-1H-indazol-5-yl)pyridin-3-yl)piperidin-3-yl)-2,2-difluoroethan-1-ol] | 0.01 to 1 | –
N#CC1CCN(c2cnc(-c3ccc(F)c(F)c3)cc2Cn2cnc3c(N)ncnc32)CC1N (stereo not shown) [Example 18, 3-amino-1-(4-((6-amino-9H-purin-9-yl)methyl)-6-(3,4-difluorophenyl)pyridin-3-yl)piperidine-4-carbonitrile] | > 1 | –
Cc1cc(C(F)F)ccc1-c1cc(Cn2cnc3c(N)ncnc32)c(N2CCC[C@](N)([C@H](O)C(F)F)C2)cn1 [Example 140, (S)-1-((R)-3-amino-1-(4-((6-amino-9H-purin-9-yl)methyl)-6-(4-(difluoromethyl)-2-methylphenyl)pyridin-3-yl)piperidin-3-yl)-2,2-difluoroethan-1-ol] | 0.01 to 1 | –
NC(=O)C[C@@]1(N)CCCN(c2cnc(-c3ccc(F)c(F)c3)cc2Cn2cnc3c(N)ncnc32)C1 [Example 62, (S)-2-(3-amino-1-(4-((6-amino-9H-purin-9-yl)methyl)-6-(3,4-difluorophenyl)pyridin-3-yl)piperidin-3-yl)acetamide] | 0.01 to 1 | –
Cc1cc(C(F)F)c(F)cc1-c1cc(Cn2cnc3c(N)ncnc32)c(N2CCC[C@](N)([C@@H](O)C(F)F)C2)cn1 [Example 129, (R)-1-((R)-3-amino-1-(4-((6-amino-9H-purin-9-yl)methyl)-6-(4-(difluoromethyl)-5-fluoro-2-methylphenyl)pyridin-3-yl)piperidin-3-yl)-2,2-difluoroethan-1-ol] | 0.001 to 0.01 | –
Nc1ncnc2c1ncn2Cc1cc(-c2cc(F)c(C(F)F)cc2F)ncc1N1CCC[C@](N)([C@H](O)C(F)F)C1 [Example 120, (S)-1-((R)-3-amino-1-(4-((6-amino-9H-purin-9-yl)methyl)-6-(4-(difluoromethyl)-2,5-difluorophenyl)pyridin-3-yl)piperidin-3-yl)-2,2-difluoroethan-1-ol] | 0.001 to 0.01 | –
COc1c(-c2ccc(F)c(F)c2)ncc(N2CCC[C@](N)([C@H](O)C(F)F)C2)c1Cn1cnc2c(N)ncnc21 [Example 118, (S)-1-((R)-3-amino-1-(4-((6-amino-9H-purin-9-yl)methyl)-6-(3,4-difluorophenyl)-5-methoxypyridin-3-yl)piperidin-3-yl)-2,2-difluoroethan-1-ol] | 0.001 to 0.01 | –
Nc1ncnc2c1ncn2Cc1c(N2CCC[C@](N)([C@H](O)C(F)F)C2)cnc(-c2ccc(F)cc2F)c1F [Example 142, (S)-1-((R)-3-amino-1-(4-((6-amino-9H-purin-9-yl)methyl)-6-(2,4-difluorophenyl)-5-fluoropyridin-3-yl)piperidin-3-yl)-2,2-difluoroethan-1-ol] | 0.01 to 1 | –
Nc1ncnc2c1ncn2Cc1cc(-c2ccc(F)c(F)c2)ncc1N1CCCC(N)(C(=O)C2CCOC2)C1 (stereo not shown) [Example 111, (3-amino-1-(4-((6-amino-9H-purin-9-yl)methyl)-6-(3,4-difluorophenyl)pyridin-3-yl)piperidin-3-yl)(tetrahydrofuran-3-yl)methanone] | > 1 | –

Next, values leading:

IC50 [1] [µM] | IC50 [µM] | Compound
– | > 1 | CNC(=O)[C@@H]1[C@H](N)CCCN1c1cnc(-c2ccc(F)c(F)c2)cc1Cn1cnc2c(N)ncnc21 [Example 315, (2S,3R)-3-amino-1-(4-((6-amino-9H-purin-9-yl)methyl)-6-(3,4-difluorophenyl)pyridin-3-yl)-N-methylpiperidine-2-carboxamide]
– | > 1 | C[C@@H]1CN(c2cnc(-c3ccc(F)cc3)cc2Cn2cnc3c(N)ncnc32)C[C@@](N)(CC(F)F)C1 [Example 307, 9-((5-((3S,5S)-3-amino-3-(2,2-difluoroethyl)-5-methylpiperidin-1-yl)-2-(4-fluorophenyl)pyridin-4-yl)methyl)-9H-purin-6-amine]
– | > 1 | C[C@H]1CC[C@@H](N)CN1c1cnc(-c2ccc(F)c(F)c2)cc1Cn1cnc2c(N)ncnc21 [Example 310, 9-((5-((2S,5R)-5-amino-2-methylpiperidin-1-yl)-2-(3,4-difluorophenyl)pyridin-4-yl)methyl)-9H-purin-6-amine]
– | > 1 | Nc1nccc2c1ncn2Cc1cc(N2CCC2)ncc1N1CCCC(N)(c2cccc(Cl)n2)C1 (stereo not shown) [Example 265, 1-((5-(3-amino-3-(6-chloropyridin-2-yl)piperidin-1-yl)-2-(azetidin-1-yl)pyridin-4-yl)methyl)-1H-imidazo[4,5-c]pyridin-4-amine]
– | 0.01 to 1 | COc1ccc(-c2cc(Cn3cnc4c(N)ncnc43)c(N3CCC[C@](N)(c4ccc(F)c(C)n4)C3)cn2)cc1F [Example 207, (R)-9-((5-(3-amino-3-(5-fluoro-6-methylpyridin-2-yl)piperidin-1-yl)-2-(3-fluoro-4-methoxyphenyl)pyridin-4-yl)methyl)-9H-purin-6-amine]
– | 0.01 to 1 | Nc1ncnc2c1ncn2Cc1cc(-c2ccc(F)c(F)c2)ncc1N1CCCC(N)(C(F)C(F)F)C1 (stereo not shown) [Example 300, 9-((5-(3-amino-3-(1,2,2-trifluoroethyl)piperidin-1-yl)-2-(3,4-difluorophenyl)pyridin-4-yl)methyl)-9H-purin-6-amine]
– | > 1 | Nc1ncnc2c1ncn2Cc1cc(-c2ccc(F)c(F)c2)ncc1N1CCC[C@@H](N)[C@H]1[C@@H](O)C(F)(F)F [Example 316, (R)-1-((2S,3R)-3-amino-1-(4-((6-amino-9H-purin-9-yl)methyl)-6-(3,4-difluorophenyl)pyridin-3-yl)piperidin-2-yl)-2,2,2-trifluoroethan-1-ol]
– | 0.01 to 1 | Nc1ncnc2c1ncn2Cc1cc(-c2ccc(F)cc2)ncc1N1CCCC(N)(c2ccc(F)cn2)C1 (stereo not shown) [Example 189, 9-((5-(3-amino-3-(5-fluoropyridin-2-yl)piperidin-1-yl)-2-(4-fluorophenyl)pyridin-4-yl)methyl)-9H-purin-6-amine]
– | 0.01 to 1 | CCc1cncc([C@@]2(N)CCCN(c3cnc(-c4ccc(F)cc4)cc3Cn3cnc4c(N)nccc43)C2)n1 [Example 256, (R)-1-((5-(3-amino-3-(6-ethylpyrazin-2-yl)piperidin-1-yl)-2-(4-fluorophenyl)pyridin-4-yl)methyl)-1H-imidazo[4,5-c]pyridin-4-amine]
– | > 1 | Nc1ncnc2c1ncn2Cc1cc(-c2ccc(F)c(F)c2)ncc1N1CCC[C@@H](N)[C@H]1c1ccccc1 [Example 323, 9-((5-((2R,3R)-3-amino-2-phenylpiperidin-1-yl)-2-(3,4-difluorophenyl)pyridin-4-yl)methyl)-9H-purin-6-amine]
– | 0.01 to 1 | CCn1ccc([C@@]2(N)CCCN(c3cnc(C4CC4)cc3Cn3cnc4c(N)nccc43)C2)n1 [Example 276, (R)-1-((5-(3-amino-3-(1-ethyl-1H-pyrazo1-3-yl)piperidin-1-yl)-2-cyclopropylpyridin-4-yl)methyl)-1H-imidazo[4,5-c]pyridin-4-amine]
– | 0.01 to 1 | Nc1ncnc2c1ncn2Cc1cc(-c2ccc(F)c(F)c2)ncc1N1CCC[C@@H](N)[C@H]1COC(F)F [Example 311, 9-((5-((2S,3R)-3-amino-2-((difluoromethoxy)methyl)piperidin-1-yl)-2-(3,4-difluorophenyl)pyridin-4-yl)methyl)-9H-purin-6-amine]
